Where two headings read alike, the source gives them in different places.
Experiments:
[1] = target: LC3B (Homo sapiens, UniProt Q9GZQ8); assay: MST detection of affinity activity with LC3B; format: binding; set-up: His8 (with TEV site) (N); made in house; host or cells: Escherichia coli BL21(DE3)pLysS
Protocol: The recombinant GST-LC3B proteins were prepared and purified, dialyzed into 1×PBS, and then labelled with the red fluorophore with the protein labeling kit RED-NHS (Nanotemper, cat. no. L001).
The MST experiments were performed using the Monolith NT.115 instrument (NanoTemper Technologies). The reaction buffer contains 20 mM HEPES, pH 7.4, 150 mM NaCl, and the protein concentration was 500 nM. The MST data were collected under 40% infrared laser power and 20% light-emitting diode power. The data were analyzed by Nanotemper software.

[2] = test system: lipid droplets in wild type MEF cells; assay: Reduction of OA-induced lipid droplets in wild type MEF cells (BODIPY 493/503 staining); format: cell-based, mouse; settings: MEF, unconjugated compound 5 μM
Protocol: (5) OA-BSA stock solution was prepared into OA-BSA working solution (50× final concentration, 200 μM), and 40 μl of OA-BSA working solution was added to each well to induce lipid droplets. For the non-OA induction group, 40 μl of 10% BSA solution was added to the control well, and the amount of BSA was the same as that of the experimental group.
Compounds were formulated into DMSO stock solutions. Stock compounds were diluted with DMSO into the indicated concentrations of working solutions prior to use in the treatment of cells. After induction of the lipid droplets with OA for the indicated time, the test compounds were added to the cells respectively. Control wells were replaced with the equal volume of DMSO. Unless otherwise stated, the compounds were diluted into 10× solutions using the culture medium and added to the culture medium for 24 hours of incubation. Cells were treated with compounds in a 37° C. incubator with 5% CO2.
(3) The original medium in the multi-well plates was removed, washed and the cells was fixed, 1 ml of the BODIPY solution prepared in (1) was added to each well, and stained for 15 minutes. The staining solution was aspirated and washed with 1×PBS.
(5) The coverslips laid in the multi-well plates were removed, and imaged with the Zeiss 880 confocal microscope after mounted, and analyzed the size and number of lipid droplets with ImageJ.
Wild type MEF cells were cultured in a DMEM culture medium containing 10% FBS. Cells were plated according to the method as described above (12 well plate was plated with aseptic treated slides). When cells grew to a confluence of 60-70%, lipid droplets were induced with OA for 30 h according to the method as described above.
At the time point of 6th hour after initiation of induction, the cells were treated (treated for 24 hours) with Compound 1A or Compound 2A (compound concentrations were 50 μM, 15.8 μM, 5 μM, 1.58 μM, 0.5 μM, 0.158 μM) according to the method as described above.

[3] = test system: lipid droplets in SH-SY5Y cells; assay: Reduction of OA-induced lipid droplets in SH-SY5Y cells; format: cell-based, human; settings: unconjugated compound 5 μM
Excerpt: The reduction of lipid droplets in SH-SY5Y cells by Compound 1A and Compound 2A was detected by a method that was similar to Example 2, and the result was shown in FIG. 18.
The effects of unconjugated LC3 binding Compound A1, A5 and unconjugated lipid droplet probe ORBB […] respectively on lipid droplets in SH-SY5Y cells (FIG. 20A) and MEF cells (FIG. 20B) were detected by a method similar to Example 2.

[4] = test system: lipid droplets in 3T3-L1 fat precursor cell differentiated fat cells; assay: Lipid droplets in 3T3-L1 fat precursor cell differentiated fat cells; format: cell-based, mouse; settings: 3T3-L1 differentiated fat cells, 5 μM, 24 h
[5] = test system: lipid droplets in human normal liver cell line QSG7701; assay: Endogenous lipid droplets in human normal liver cell line QSG7701; format: cell-based; settings: QSG7701, no induction, 5 μM, 24 h
Protocol: 10% FBS+90% RPMI 1640 culture medium was used for cultivation, cell incubator culture condition of 37° C. and 5% CO2 was used. Cells were plated as 50 thousands/well (12 well plate was plated with aseptic treated slides). When cells grew to a confluence of 80-90%, the compound (Compound 1A or Compound 2A, at a concentration of 5 μM) was added for treatment, and LC3 binding Compound A1, A5, lipid droplet probe Sudan IV as well as DMSO acted as a control. […]. In the compounds of present disclosure, LC3 binding moiety was covalently linked with lipid droplet binding moiety, and thus could achieve the effect of reducing liver cell endogenous lipid droplet.

[6] = test system: db/db mice; assay: Effect of the compound on db/db mouse; format: in vivo
Excerpt: Experimental animals: nineteen-week-old db/db male mice (C57BL/6J-Lepr^db/Lepr^db) were obtained from Shanghai Model Organisms Co., Ltd., and acclimatized for at least 1 week before experiments. The mice had ad libitum access to standard chow and water.
Normal control: The C57BL/6 male mice fed on standard irradiated chow diet (Shuyishuer Inc. cat. no. D12450J) from Changzhou Shuyishuer Biotechnology Co., Ltd. (Shuyishuer Inc.) were used as the normal control.
Mice were randomly divided into 7 groups, wherein 8 mice in each group, and the mice in each group were subjected to intraperitoneal injection to administer: (1) only vehicle (no DMSO) group: 0% DMSO+39% PEG300 (Selleck, cat. no. S6704)+5% Tween-80 (Selleck, cat. no. S6702)+56% distilled water, (2) DMSO group: 1% DMSO+39% PEG300+5% Tween-80+55% H2O (DMSO vehicle), (3) C3 group: Compound 3A was in DMSO vehicle, (4) C4 group: Compound 4A in DMSO vehicle, (5) SIII group: Sudan III DMSO vehicle, (6) GW5074 group: Compound A1 in DMSO vehicle, (7) DP group: Compound A5 in DMSO vehicle. For groups (3)-(7), the compound (30 mg/kg, administration volume 150 μL) was administered through intraperitoneally injection for consecutive 2 weeks, and once a day. The food and water intake were measured with an analytical electronic balance.
Bodyweight was weighed every day.
If time permitted, tail vein blood (30-50 μL) was collected every 1-3 days.
24 hours after the time point of the last injection, end point maxillary surface blood sampling was performed on each mouse. All mice were Euthanized by cervical dislocation, and then tissue sample (e.g., liver samples) were obtained and stored in Eppendorf tubes at −80° C. for assay.
12 days after initiation of administration, each mouse was scanned by a minispec nuclear magnetic resonance (NMR) instrument (Bruker LF50 II “Minispec” body composition analyzer, Bruker Optics) that was designed for experimental animals, and based on the measurement of solid and liquid parts of the samples, the body fat and lean body weight were determined by this device.
Serum: Tail vein blood samples (30-50 μL) were left to coagulate in […] blood collection tubes (Jiangsu Kangjian Medical Products Co., Ltd., model KJ002) at room temperature without interference, and then centrifuged at 2,000×g for 10 minutes at 4° C. to remove the clot. Supernatant was collected to obtain the serum.
Liver: Liver samples were obtained as described in (2). 100 mg of liver tissue was homogenized in 0.9 mL of absolute alcohol under ice-cold conditions, and then centrifuged (2,500 r.p.m/min, 10 min). Supernatant was collected, and then stored at −80° C.
The kits were used according to the instruction from manufacturer (TAG: TG kit, cat. no. A110-1-1; TC: T-CHO kit, cat. no. A111-1. FFA: NEFA kit, cat. No. A042-2-1; they were all from Nanjing Jiancheng Bioengineering Institute). TAG, TC and FFA levels in serum and liver samples were determined.
According to the lipidomic method as described above, the contents of liver total lipid, glycerolipid, sterol lipid, neutral sphingolipid and polar lipid were analyzed. The log 2-fold change (log2 FC) and statistical significance (p-value) relative to the DMSO group were calculated.

[7] = test system: autophagosome-lipid droplet colocalization in MEF cells; assay: Colocalization of autophagosome and lipid droplets in mCherry-LC3B transfected MEF cells; format: cell-based, mouse; settings: 5 μM, 3 h, compared to DMSO control
Protocol: (1) In MEF cells, mCherry-LC3B was expressed by cDNA plasmid transfection.
(2) OA was added to the culture medium 30 hours after transfection to induce lipid droplets.
(3) Compounds were added to treat cells 6 hours after induction.
(4) 3 hours after compounds addition, cells were fixed and BODIPY stained.
(5) The coverslips laid in the multi-well plates were removed, and imaged with the Zeiss 880 confocal microscope after mounted to observe the aggregation of LC3 puncta around the lipid droplets.
In MEF cells, mCherry-LC3B was expressed by cDNA plasmid transfection. At 30th hour of overexpression, OA was added into cells for lipid droplet induction. 6 hours later, the compound was added for 3 hours' treatment, and then cells were subjected to immunostaining. […] Lipid droplets (green) were stained with BODIPY stain, and nucleus were indicated with DAPI stain. […] In FIG. 24, the colocalized autophagosome-lipid droplet was marked with circles.

[8] = MST, read-out: Kd, equilibrium dissociation constant between the LC3 binding compound and LC3B

O=C(O)c1cc2ccc(O)cc2oc1=O [Compound A4]
Kd [1, 8]: 3 µM

O=c1cc(-c2ccccc2)c2c(O)cc(O)cc2o1 [Compound A5, 5,7-dihydroxy-4-phenyl-2H-coumarin, reference compound]
lipid droplets (number and size) [2]: did not significantly decrease or become smaller | lipid droplets (number and size) [3]: did not significantly decrease or become smaller | amount/size of lipid droplets [4]: no significant effect | endogenous lipid droplets (amount) [5]: no significant effect | mice died in the experiment ([6]; 30 mg/kg ip, 8 mice per group): one mouse

COc1ccc(-c2cc(=O)oc3c(C)c(O)c(CN(C)C)cc23)cc1 [Compound A7]
Kd [1, 8]: 0.672 µM

Cc1ccc(C(=O)N(CCCN)[C@@H](c2nc3cc(Cl)ccc3c(=O)n2Cc2ccccc2)C(C)C)cc1 [Compound A8, ispinesib]
Kd [1]: 0.462 ± 0.11 µM

Nc1ncnc2c1c(-c1cccc(OCc3ccccc3)c1)cn2C1CC(CN2CCCC2)C1 (centres unmarked) [Compound A10]
Kd [1, 8]: 3.98 ± 0.537 µM

COCC(=O)NC/C=C/c1ccc2ncnc(Nc3ccc(Oc4ccc(C)cc4)c(C)c3)c2c1 [Compound A11]
Kd [1, 8]: 2.78 ± 0.577 µM

CC(C)(C)c1cc(NC(=O)Nc2ccc(-c3cn4c(n3)sc3cc(OCCN5CCOCC5)ccc34)cc2)no1 [Compound A12]
Kd [1, 8]: 21.3 ± 1.69 µM

Cc1csc(-c2nnc(Nc3ccc(Oc4ncccc4-c4ccnc(N)n4)cc3)c3ccccc23)c1 [Compound A13]
Kd [1, 8]: 5.19 ± 0.282 µM

OCCCCCCCCCCBr [Linker, 10-bromo-1-decanol, reference compound]
amount/size of lipid droplets [4]: no significant effect

Oc1ccc2ccccc2c1/N=N/c1ccc(/N=N/c2ccccc2)cc1 [Sudan III, reference compound]
amount/size of lipid droplets [4]: no significant effect | TAG in liver ([6]; lipidomics): not reduced | other major neutral lipids, cholesteryl ester (ChE) and diglyceride (DG) in liver ([6]; lipidomics): not reduced | interaction with LC3B ([1]; MST): No interaction

Cc1ccccc1/N=N/c1ccc(/N=N/c2c(O)ccc3ccccc23)c(C)c1 [Sudan IV, reference compound]
lipid droplets (number and size) [2]: did not significantly decrease or become smaller | lipid droplets (number and size) [3]: did not significantly decrease or become smaller | amount/size of lipid droplets [4]: no significant effect | ratio of colocalization of red and green aggregation point (autophagosome-lipid droplet) [7]: No such effect | endogenous lipid droplets (amount) [5]: no significant effect | interaction with LC3B ([1]; MST): No interaction

Source: patent publication US12582720B2, “Compound for preventing or treating lipid metabolism-related diseases” (Fudan University, priority 2020, dated 2026)
